From PMC12163827, “Identification of Novel Leishmania donovani Nucleoside Hydrolase Inhibitors from Banisteriopsis laevifolia Using Affinity Selection-Mass Spectrometry” (ACS Omega, 2025)
Read-outs that look alike come from different tables or passages of the source. Each block holds one molecule with its values, some of them ahead of it.

Columns and labels:
Assay type in all cases: biochemical
[1] = molecular target: T1, Leishmania donovani nucleoside hydrolase (LdNH) (Leishmania donovani, UniProt Q8WQX2); experiment: HPLC-DAD inosine hydrolysis assay with immobilized purified LdNH plus […] Triton X-100; also AS-MS (affinity ratio […])
T1 construct: gene iunh
T1 sequence (Q8WQX2 1-314): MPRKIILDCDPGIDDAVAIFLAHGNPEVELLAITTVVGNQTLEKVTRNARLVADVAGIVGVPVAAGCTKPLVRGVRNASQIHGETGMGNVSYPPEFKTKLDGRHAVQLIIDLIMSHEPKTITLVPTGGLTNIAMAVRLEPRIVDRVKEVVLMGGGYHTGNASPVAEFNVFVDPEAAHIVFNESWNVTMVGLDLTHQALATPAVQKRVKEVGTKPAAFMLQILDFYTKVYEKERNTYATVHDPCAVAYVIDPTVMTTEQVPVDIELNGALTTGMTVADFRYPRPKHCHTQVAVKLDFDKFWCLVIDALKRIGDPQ

[2] = molecular target: T1, Leishmania donovani nucleoside hydrolase (LdNH); experiment: as above; remark: listed apart in the source
[3] = molecular target: T1, Leishmania donovani nucleoside hydrolase (LdNH); experiment: HPLC-DAD inosine hydrolysis assay with immobilized LdNH, single concentration […] with Triton X-100; also AS-MS (affinity ratio […]); settings: read-out: inhibition at 100 μmol/L (with Triton X-100) (%)
[4] = molecular target: T1, Leishmania donovani nucleoside hydrolase (LdNH); experiment: as above; settings: read-out: inhibition at 100 μmol/L (with Triton X-100) (%); remark: listed apart in the source

IC50 [1]: 40.2 ± 16.6 µM
SMILES: O=c1c(O[C@@H]2O[C@H](CO)[C@@H](O)[C@H](O)[C@H]2O)c(-c2ccc(O)c(O)c2)oc2cc(O)cc(O)c12 [isoquercetin]

IC50 [2]: 41.6 ± 8.9 µM
SMILES: O=c1c(O[C@@H]2O[C@H](CO)[C@@H](O)[C@H](O)[C@H]2O)c(-c2ccc(O)cc2)oc2cc(O)cc(O)c12 [astragalin]

SMILES: O=c1cc(-c2ccc(O)c(O)c2)oc2c([C@@H]3O[C@H](CO)[C@@H](O)[C@H](O)[C@H]3O)c(O)cc(O)c12 [orientin]
inhibition at 100 µM [3]: 30.4%

inhibition at 100 µM [4]: 61.2%
SMILES: C[C@@H]1O[C@@H](OC[C@H]2O[C@@H](Oc3c(-c4ccc(O)c(O)c4)oc4cc(O)cc(O)c4c3=O)[C@H](O)[C@@H](O)[C@@H]2O)[C@H](O)[C@H](O)[C@H]1O [rutin]
